In patent publication US8415469B2, “Compounds and methods for kinase modulation, and indications therefor” (Plexxikon Inc., priority 2005, dated 2013):
Values belong to the compound of their own block, whether it stands above or below them.

Columns and labels:
Type in all cases: biochemical
FGFR1 = biological target: T1, FGFR1 (Homo sapiens, UniProt P11362, C488A/C584S); experiment: AlphaScreen kinase assay, FGFR1; details: read-out: IC50, activity toward kinase FGFR
T1 construct: P1351.pET N6 BI-PTP FGFR A458-E765-X C488A, C584S; made in house; host or cells: E. coli (PTP1B co-expressed)
T1 sequence (P11362 458-765 C488A/C584S): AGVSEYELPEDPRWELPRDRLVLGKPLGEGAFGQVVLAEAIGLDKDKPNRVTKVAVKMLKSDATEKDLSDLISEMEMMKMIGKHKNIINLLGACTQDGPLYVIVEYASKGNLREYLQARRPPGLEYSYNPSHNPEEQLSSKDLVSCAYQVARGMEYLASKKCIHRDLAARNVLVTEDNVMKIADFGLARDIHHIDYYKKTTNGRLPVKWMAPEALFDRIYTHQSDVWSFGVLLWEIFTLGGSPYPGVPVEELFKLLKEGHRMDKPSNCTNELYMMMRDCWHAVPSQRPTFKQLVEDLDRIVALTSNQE

Ret = biological target: T2, Ret (Homo sapiens, UniProt P07949); experiment: AlphaScreen kinase assay, Ret; details: read-out: IC50, activity toward kinase Ret
T2 construct: P1378.pET-SF BI-PTP RET H661-R1012 HIS; made in house
T2 sequence (P07949 with tags, fused parts or gaps): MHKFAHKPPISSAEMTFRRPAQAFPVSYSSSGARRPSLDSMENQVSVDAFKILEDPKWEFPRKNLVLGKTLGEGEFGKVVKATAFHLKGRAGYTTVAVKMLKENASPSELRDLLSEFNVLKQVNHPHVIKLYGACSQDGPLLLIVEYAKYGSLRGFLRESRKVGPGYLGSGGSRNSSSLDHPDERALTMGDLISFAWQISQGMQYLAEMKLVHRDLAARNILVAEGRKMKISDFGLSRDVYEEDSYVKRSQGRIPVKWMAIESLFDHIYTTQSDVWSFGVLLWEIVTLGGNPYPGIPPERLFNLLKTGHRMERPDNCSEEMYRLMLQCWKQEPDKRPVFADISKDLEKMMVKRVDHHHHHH

Akt3 = Akt3 (Homo sapiens, UniProt Q9Y243); experiment: AlphaScreen kinase assay, Akt3; details: read-out: IC50, activity toward kinase Akt3
Chain of Akt3 (Q9Y243 whole entry): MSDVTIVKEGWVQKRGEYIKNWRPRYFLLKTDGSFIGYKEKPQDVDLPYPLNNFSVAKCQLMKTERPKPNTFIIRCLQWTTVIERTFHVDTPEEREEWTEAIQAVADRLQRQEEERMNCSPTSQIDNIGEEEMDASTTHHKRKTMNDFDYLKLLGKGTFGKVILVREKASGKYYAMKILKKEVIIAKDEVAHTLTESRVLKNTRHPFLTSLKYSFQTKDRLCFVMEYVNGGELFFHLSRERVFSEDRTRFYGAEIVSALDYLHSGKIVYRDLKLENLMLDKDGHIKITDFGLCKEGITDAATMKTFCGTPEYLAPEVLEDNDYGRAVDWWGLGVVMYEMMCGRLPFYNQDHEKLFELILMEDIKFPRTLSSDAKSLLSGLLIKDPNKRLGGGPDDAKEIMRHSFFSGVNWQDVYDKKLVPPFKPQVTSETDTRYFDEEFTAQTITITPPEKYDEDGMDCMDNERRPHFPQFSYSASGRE
Description: (§1) AlphaScreen assay was used to screen additional kinases. The assay is similarly dependent on the phosphorylation of a peptide substrate. In this assay, an antibody that recognizes phosphorylated substrate is bound to an acceptor bead. The peptide substrate is attached to biotin, which binds to a donor head that contains streptavidin. Thus phosphorylated substrate is bound by antibody and streptavidin, bringing the donor and acceptor heads into close proximity when kinase is not inhibited. The donor produces singlet oxygen which results in emission from the acceptor when they are in close proximity. Conversely, when kinase is inhibited, the donor and acceptor beads are not associated and the emission from the acceptor is reduced.
(§2) AlphaScreen assays were done using compounds dissolved in DMSO to a concentration of 20 mM. The compounds were diluted accordingly to the desired final concentrations in each sample well, using 1:3 serial dilution for a total of 8 concentration points.

c-Raf-1 = biological target: T3, c-Raf-1 (Homo sapiens, UniProt P04049); experiment: AlphaScreen kinase assay, c-Raf-1; details: read-out: IC50, activity toward kinase c-Raf-1
T3 construct: purchased Upstate Biotechnology
T3 sequence (P04049 whole entry): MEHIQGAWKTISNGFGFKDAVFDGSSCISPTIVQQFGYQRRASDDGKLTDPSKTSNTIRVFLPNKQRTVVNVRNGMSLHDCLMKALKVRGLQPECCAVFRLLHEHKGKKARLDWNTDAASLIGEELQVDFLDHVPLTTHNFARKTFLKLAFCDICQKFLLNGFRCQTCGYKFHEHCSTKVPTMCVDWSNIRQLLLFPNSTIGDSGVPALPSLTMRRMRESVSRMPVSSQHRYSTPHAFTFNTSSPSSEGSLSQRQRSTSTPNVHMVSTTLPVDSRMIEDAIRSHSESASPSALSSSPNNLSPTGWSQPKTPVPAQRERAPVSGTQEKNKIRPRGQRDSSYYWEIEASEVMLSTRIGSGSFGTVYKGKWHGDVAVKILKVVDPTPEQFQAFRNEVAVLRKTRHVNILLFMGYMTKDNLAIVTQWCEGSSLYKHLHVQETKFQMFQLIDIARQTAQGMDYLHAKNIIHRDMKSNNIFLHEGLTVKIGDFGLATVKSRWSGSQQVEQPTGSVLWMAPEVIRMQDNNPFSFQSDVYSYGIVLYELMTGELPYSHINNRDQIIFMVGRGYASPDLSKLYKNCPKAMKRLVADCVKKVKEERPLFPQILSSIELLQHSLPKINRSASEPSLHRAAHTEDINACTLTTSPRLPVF

B-Raf V600E = biological target: T4, B-Raf V600E (Homo sapiens, UniProt P15056, V600E); experiment: AlphaScreen kinase assay, B-Raf V600E; details: read-out: IC50, activity toward kinase B-Raf V600E
T4 construct: P4254. pFastBacBD-CDC37 BRAF D437-K722-X, V600E; His6 with pFastBac HT leader (TEV site) (N); made in house; host or cells: Sf9 (baculovirus; chaperone CDC37 co-expressed)
T4 sequence (P15056 with tags, fused parts or gaps V600E): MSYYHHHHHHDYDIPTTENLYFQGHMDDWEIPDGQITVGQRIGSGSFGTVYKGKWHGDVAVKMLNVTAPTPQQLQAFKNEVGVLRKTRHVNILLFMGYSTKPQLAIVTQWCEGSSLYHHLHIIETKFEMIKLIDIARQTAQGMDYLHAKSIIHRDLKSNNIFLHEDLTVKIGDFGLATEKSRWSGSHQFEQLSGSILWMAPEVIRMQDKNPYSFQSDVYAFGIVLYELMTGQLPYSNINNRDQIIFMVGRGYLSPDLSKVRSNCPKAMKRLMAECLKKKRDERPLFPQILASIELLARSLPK

Jnk3 = biological target: T5, Jnk3 (Homo sapiens, UniProt P53779); experiment: AlphaScreen kinase assay, Jnk3; details: read-out: IC50, activity toward kinase Jnk3
T5 construct: purchased Upstate Biotechnology
T5 sequence (P53779 whole entry): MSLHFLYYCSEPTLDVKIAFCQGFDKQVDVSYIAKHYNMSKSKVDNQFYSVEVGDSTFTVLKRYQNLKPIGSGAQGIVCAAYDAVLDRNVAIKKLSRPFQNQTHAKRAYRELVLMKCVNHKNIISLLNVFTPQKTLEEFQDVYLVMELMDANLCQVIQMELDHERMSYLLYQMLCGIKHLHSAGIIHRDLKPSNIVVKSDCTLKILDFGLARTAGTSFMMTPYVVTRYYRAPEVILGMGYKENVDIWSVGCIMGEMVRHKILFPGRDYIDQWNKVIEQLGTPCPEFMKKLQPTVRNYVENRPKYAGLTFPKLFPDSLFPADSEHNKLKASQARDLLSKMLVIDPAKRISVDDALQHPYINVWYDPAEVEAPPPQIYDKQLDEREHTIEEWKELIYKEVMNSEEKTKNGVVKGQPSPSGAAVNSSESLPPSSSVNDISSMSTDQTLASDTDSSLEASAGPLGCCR

B-Raf = biological target: T6, B-Raf (Homo sapiens, UniProt P15056); experiment: AlphaScreen kinase assay, B-Raf; details: read-out: IC50, activity toward kinase B-Raf
T6 construct: purchased Upstate Biotechnology
T6 sequence (P15056 whole entry): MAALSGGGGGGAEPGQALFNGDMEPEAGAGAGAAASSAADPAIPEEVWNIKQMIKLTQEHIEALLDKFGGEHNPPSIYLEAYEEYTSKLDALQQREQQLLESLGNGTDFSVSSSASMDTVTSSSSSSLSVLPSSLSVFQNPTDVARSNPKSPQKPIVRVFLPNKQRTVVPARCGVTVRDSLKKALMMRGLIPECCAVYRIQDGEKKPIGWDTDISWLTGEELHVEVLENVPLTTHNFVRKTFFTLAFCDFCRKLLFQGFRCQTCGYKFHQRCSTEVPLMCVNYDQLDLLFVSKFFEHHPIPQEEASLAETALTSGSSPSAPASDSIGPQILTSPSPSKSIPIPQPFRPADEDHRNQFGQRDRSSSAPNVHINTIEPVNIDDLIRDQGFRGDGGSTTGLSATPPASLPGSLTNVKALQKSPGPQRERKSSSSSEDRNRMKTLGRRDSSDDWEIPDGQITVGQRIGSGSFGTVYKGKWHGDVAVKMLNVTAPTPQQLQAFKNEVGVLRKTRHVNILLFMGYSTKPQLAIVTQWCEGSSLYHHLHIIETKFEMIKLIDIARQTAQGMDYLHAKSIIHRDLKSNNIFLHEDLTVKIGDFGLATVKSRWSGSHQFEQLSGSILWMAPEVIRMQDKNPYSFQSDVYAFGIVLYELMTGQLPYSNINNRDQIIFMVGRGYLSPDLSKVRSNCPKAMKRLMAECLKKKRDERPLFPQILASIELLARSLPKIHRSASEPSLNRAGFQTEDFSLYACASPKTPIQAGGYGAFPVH

Kit = biological target: T7, Kit (Homo sapiens, UniProt P10721); experiment: AlphaScreen kinase assay, Kit; details: read-out: IC50, activity toward kinase Kit
T7 construct: P1332.N6 BI PTP KIT M552-K948-X COD; His6 (N); made in house; host or cells: E. coli (PTP1B co-expressed)
T7 sequence (P10721 with tags, fused parts or gaps): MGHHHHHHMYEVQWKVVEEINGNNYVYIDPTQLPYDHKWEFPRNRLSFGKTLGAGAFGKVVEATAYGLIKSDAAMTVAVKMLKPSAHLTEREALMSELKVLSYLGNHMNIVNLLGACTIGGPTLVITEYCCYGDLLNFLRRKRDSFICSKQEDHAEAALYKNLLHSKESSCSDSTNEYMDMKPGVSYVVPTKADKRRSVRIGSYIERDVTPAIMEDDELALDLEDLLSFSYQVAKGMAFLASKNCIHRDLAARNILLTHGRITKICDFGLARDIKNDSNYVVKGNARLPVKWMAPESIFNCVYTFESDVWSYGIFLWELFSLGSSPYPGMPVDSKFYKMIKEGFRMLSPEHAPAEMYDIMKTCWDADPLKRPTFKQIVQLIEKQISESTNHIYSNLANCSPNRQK

Pyk2 = biological target: T8, Pyk2 (Homo sapiens, UniProt Q14289); experiment: AlphaScreen kinase assay, Pyk2; details: read-out: IC50, activity toward kinase Pyk2
T8 construct: purchased Upstate Biotechnology

Flt1 = biological target: T9, Flt1 (Homo sapiens, UniProt P17948); experiment: AlphaScreen kinase assay, Flt1; details: read-out: IC50, activity toward kinase Flt1
T9 construct: P1826.pETN6 BI-PTP FLT1 M799-D1165-X WT; His6 (N); made in house; host or cells: E. coli (PTP1B co-expressed)
T9 sequence (P17948 with tags, fused parts or gaps): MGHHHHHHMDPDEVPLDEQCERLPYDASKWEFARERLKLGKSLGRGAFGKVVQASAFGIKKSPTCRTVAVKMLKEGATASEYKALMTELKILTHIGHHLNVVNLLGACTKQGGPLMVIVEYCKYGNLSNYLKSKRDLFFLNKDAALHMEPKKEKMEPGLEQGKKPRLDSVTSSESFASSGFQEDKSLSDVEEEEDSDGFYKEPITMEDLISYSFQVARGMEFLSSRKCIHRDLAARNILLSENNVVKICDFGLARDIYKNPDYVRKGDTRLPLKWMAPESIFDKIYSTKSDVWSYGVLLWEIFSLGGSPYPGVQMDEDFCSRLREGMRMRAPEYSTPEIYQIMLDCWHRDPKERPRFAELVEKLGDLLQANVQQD

Btk = biological target: T10, Btk (Homo sapiens, UniProt Q06187); experiment: Z'-Lyte FRET kinase assay (Invitrogen), Btk; details: read-out: IC50, activity toward kinase Btk
T10 construct: purchased Invitrogen (assay run by Invitrogen)
T10 sequence (Q06187 whole entry): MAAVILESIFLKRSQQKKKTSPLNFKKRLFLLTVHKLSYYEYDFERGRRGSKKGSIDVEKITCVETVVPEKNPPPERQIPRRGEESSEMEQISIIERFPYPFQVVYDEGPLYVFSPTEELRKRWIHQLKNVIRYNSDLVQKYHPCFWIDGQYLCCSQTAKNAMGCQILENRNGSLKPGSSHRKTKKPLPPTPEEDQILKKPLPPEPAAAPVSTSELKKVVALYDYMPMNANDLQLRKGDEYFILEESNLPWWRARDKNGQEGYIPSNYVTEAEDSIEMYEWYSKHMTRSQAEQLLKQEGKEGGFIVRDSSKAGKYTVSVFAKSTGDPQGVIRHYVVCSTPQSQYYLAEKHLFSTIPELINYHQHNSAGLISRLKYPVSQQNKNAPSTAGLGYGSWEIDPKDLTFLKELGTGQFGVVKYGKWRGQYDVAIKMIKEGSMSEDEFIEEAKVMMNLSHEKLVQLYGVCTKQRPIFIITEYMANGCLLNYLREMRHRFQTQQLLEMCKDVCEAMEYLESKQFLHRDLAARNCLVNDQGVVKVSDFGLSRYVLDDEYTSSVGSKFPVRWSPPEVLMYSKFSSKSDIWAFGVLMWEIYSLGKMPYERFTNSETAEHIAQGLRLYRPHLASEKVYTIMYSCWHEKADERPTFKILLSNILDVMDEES

Fak = biological target: T11, Fak (Homo sapiens, UniProt Q05397); experiment: AlphaScreen kinase assay, Fak; details: read-out: IC50, activity toward kinase Fak
T11 construct: P1358.pFastBacHtb FAK S411-Q686-X; His6 with pFastBacHTb leader (TEV site) (N); made in house; host or cells: Sf9 (baculovirus)

Fms = biological target: T12, Fms (Homo sapiens, UniProt P07333); experiment: AlphaScreen kinase assay, Fms; details: read-out: IC50, activity toward kinase Fms
T12 construct: purchased Upstate Biotechnology

Jnk1 = biological target: T13, Jnk1 (Homo sapiens, UniProt P45983); experiment: AlphaScreen kinase assay, Jnk1; details: read-out: IC50, activity toward kinase Jnk1
T13 construct: purchased Upstate Biotechnology
T13 sequence (P45983 whole entry): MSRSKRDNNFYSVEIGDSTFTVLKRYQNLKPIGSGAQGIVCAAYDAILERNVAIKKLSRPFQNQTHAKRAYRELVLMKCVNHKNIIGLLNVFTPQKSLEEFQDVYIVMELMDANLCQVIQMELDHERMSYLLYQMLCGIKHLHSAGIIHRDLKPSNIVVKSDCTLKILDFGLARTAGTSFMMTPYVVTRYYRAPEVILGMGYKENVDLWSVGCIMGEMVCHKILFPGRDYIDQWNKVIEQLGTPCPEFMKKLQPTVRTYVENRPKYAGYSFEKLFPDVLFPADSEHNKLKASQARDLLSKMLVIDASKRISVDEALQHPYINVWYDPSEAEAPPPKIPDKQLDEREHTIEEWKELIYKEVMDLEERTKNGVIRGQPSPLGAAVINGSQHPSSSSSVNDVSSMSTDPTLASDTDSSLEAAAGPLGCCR

Src = biological target: T14, Src (Homo sapiens, UniProt P12931); experiment: AlphaScreen kinase assay, Src; details: read-out: IC50, activity toward kinase Src
T14 construct: P1144. pET-N6 BI-PTP SRC V86-L536-X; made in house
T14 sequence (P12931 with tags, fused parts or gaps): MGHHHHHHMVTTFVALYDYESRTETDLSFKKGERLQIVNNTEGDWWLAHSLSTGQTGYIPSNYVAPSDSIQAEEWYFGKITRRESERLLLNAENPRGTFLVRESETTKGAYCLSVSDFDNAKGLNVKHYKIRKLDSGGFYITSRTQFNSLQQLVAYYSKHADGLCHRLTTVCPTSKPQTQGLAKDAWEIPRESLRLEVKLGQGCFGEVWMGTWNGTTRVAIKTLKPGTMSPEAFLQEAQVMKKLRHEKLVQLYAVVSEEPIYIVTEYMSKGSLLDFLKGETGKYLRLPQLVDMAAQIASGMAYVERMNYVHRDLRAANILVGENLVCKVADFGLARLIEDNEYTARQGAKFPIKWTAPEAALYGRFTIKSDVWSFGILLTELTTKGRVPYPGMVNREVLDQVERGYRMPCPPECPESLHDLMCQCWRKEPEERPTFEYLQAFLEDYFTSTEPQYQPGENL

Zap70 = biological target: T15, Zap70 (Homo sapiens, UniProt P43403); experiment: AlphaScreen kinase assay, Zap70; details: read-out: IC50, activity toward kinase Zap70
T15 construct: P1868.pFastBac1 ZAP70 D327-G606 HIS, WT; His7 (HHHHHHH) (C); made in house
T15 sequence (P43403 with tags, fused parts or gaps): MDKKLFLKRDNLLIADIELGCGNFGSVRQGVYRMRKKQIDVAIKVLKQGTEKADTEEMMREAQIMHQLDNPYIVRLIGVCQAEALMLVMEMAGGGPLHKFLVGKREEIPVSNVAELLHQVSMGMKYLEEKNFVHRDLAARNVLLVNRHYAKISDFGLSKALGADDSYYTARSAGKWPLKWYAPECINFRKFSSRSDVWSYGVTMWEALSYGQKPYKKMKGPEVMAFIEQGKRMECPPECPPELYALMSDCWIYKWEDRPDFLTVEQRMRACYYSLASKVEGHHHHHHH
Description: as §1, §2

MAP4K4 = MAP4K4 (Homo sapiens, UniProt O95819); experiment: AlphaScreen kinase assay, MAP4K4; details: read-out: IC50, activity toward kinase MAP4K4

Structure (SMILES): COc1cccc(C(=O)c2c[nH]c3nccc(-c4cccc(C(N)=O)c4)c23)c1 [Compound P-0329]
IC50 (FGFR1): ≤ 10 µM
IC50 (Ret): ≤ 10 µM
IC50 (Akt3): ≤ 10 µM

Structure (SMILES): Cc1cccc(Nc2ccnc3[nH]ccc23)c1 [Compound P-1060]
IC50 (Akt3): ≤ 10 µM

Structure (SMILES): c1cc2cc(Nc3ccc4c(c3)OCCO4)cnc2[nH]1 [Compound P-1022]
IC50 (B-Raf V600E): ≤ 10 µM
IC50 (Jnk3): ≤ 10 µM
IC50 (Akt3): ≤ 10 µM

Structure (SMILES): c1ccc(Nc2ccnc3[nH]ccc23)cc1 [Compound P-1224]
IC50 (Akt3): ≤ 10 µM

Structure (SMILES): COc1ccc(Nc2ccnc3[nH]ccc23)cc1Cl [Compound P-0936]
IC50 (Akt3): ≤ 10 µM

Structure (SMILES): NC(=O)c1cccc(-c2cnc3[nH]cc(C(=O)c4ccc(O)cc4F)c3c2)c1 [Compound P-1459]
IC50 (B-Raf): ≤ 10 µM
IC50 (B-Raf V600E): ≤ 10 µM
IC50 (Btk): ≤ 10 µM
IC50 (Fak): ≤ 10 µM
IC50 (FGFR1): ≤ 10 µM
IC50 (Fms): ≤ 10 µM
IC50 (Jnk1): ≤ 10 µM
IC50 (Src): ≤ 10 µM
IC50 (Akt3): ≤ 10 µM

Structure (SMILES): CC(=O)c1cccc(Nc2ccnc3[nH]ccc23)c1 [Compound P-1027]
IC50 (B-Raf): ≤ 10 µM
IC50 (c-Raf-1): ≤ 10 µM
IC50 (FGFR1): ≤ 10 µM
IC50 (Flt1): ≤ 10 µM
IC50 (Akt3): ≤ 10 µM

Structure (SMILES): c1ccc2c(Cc3c[nH]c4ncccc34)cccc2c1 [Compound P-0442]
IC50 (FGFR1): ≤ 10 µM
IC50 (Zap70): ≤ 10 µM
IC50 (MAP4K4): ≤ 10 µM

Continued, values first:

IC50 (Akt3): ≤ 10 µM
Structure (SMILES): CSc1ccc(Nc2cnc3[nH]ccc3c2)cc1 [Compound P-1158]

IC50 (c-Raf-1): ≤ 10 µM
IC50 (Akt3): ≤ 10 µM
Structure (SMILES): CN(C)c1ccc(Nc2ccnc3[nH]ccc23)cc1 [Compound P-0890]

IC50 (B-Raf): ≤ 10 µM
IC50 (c-Raf-1): ≤ 10 µM
IC50 (Kit): ≤ 10 µM
IC50 (Pyk2): ≤ 10 µM
IC50 (Akt3): ≤ 10 µM
Structure (SMILES): Clc1cccc(Nc2ccnc3[nH]ccc23)c1 [Compound P-0924]

IC50 (Flt1): ≤ 10 µM
IC50 (Akt3): ≤ 10 µM
Structure (SMILES): O=C(NCc1ccccc1)c1ccc(-c2c[nH]c3ncccc23)cc1 [Compound P-0278]

IC50 (Akt3): ≤ 10 µM
Structure (SMILES): c1cc2cc(Nc3ccc4ncsc4c3)cnc2[nH]1 [Compound P-1040]

IC50 (Akt3): ≤ 10 µM
Structure (SMILES): CC(C)c1ccc(Nc2cnc3[nH]ccc3c2)cc1 [Compound P-1039]

IC50 (Akt3): ≤ 10 µM
Structure (SMILES): c1cc(Nc2ccc3c(c2)OCO3)c2cc[nH]c2n1 [Compound P-1062]

IC50 (c-Raf-1): ≤ 10 µM
IC50 (Akt3): ≤ 10 µM
Structure (SMILES): Fc1ccc(Nc2ccnc3[nH]ccc23)cc1 [Compound P-1145]

IC50 (B-Raf V600E): ≤ 10 µM
IC50 (Flt1): ≤ 10 µM
IC50 (Jnk3): ≤ 10 µM
IC50 (Kit): ≤ 10 µM
IC50 (Akt3): ≤ 10 µM
Structure (SMILES): Clc1ccc(Nc2cnc3[nH]ccc3c2)cc1 [Compound P-1082]
